Reference: the NIST ThermoML archive (doi:10.1016/j.tca.2010.06.014)
Values joined by “and” are separate entries in the source; they are usually repeats but may differ in a detail not shown here. Equal values may be shown once.

Settings: Liquid, DSC

O=[N+]([O-])OCC(CO[N+](=O)[O-])O[N+](=O)[O-] [nitroglycerin]
Settings	vapor or sublimation pressure
298.15 K	7e-05 kPa and 7.1e-05 kPa
303.15 K	0.00014 kPa and 0.000137 kPa
313.15 K	0.00046 kPa and 0.000462 kPa
323.15 K	0.0014 kPa and 0.001402 kPa
333.15 K	0.00387 kPa and 0.003866 kPa
343.15 K	0.00981 kPa and 0.009811 kPa
353.15 K	0.02313 kPa
363.15 K	0.05111 kPa
373.15 K	0.1066 kPa
383.15 K	0.211 kPa
393.15 K	0.3988 kPa
403.15 K	0.7228 kPa
413.15 K	1.261 kPa
423.15 K	2.127 kPa
433.15 K	3.475 kPa
443.15 K	5.519 kPa
453.15 K	8.539 kPa
463.15 K	12.9 kPa
473.15 K	19.06 kPa
483.15 K	27.59 kPa
493.15 K	39.2 kPa
503.15 K	54.73 kPa
513.15 K	75.19 kPa
523.15 K	101.77 kPa
